Measured values: ChEMBL document CHEMBL1201862, “PubChem BioAssay data set” (2004)
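Step 1: Grow cells in 96-well plates. Step 2: Expose to compound for 48 hours at 5 concentrations. Step 3: Interpolate endpoints linearly; if unreached, use highest concentration. GI50: concentration for 50% inhibition of growth.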 Active and inactive are the calls of the source. No stated cut-off is given here; in the data, active = GI50 up to about 1.1 µM and inactive = higher.

Columns and labels:
Assay in all cases: DTP human tumour cell line panel, 48 h
[1] = system: A549
[2] = system: CAKI-1
[3] = system: HCC 2998
[4] = system: HCT-15
[5] = system: HOP-92
[6] = system: IGROV-1
[7] = system: M14
[8] = system: MDA-MB-231
[9] = system: MDA-N
[10] = system: Malme-3M
[11] = system: OVCAR-4
[12] = system: PC-3
[13] = system: SF-295
[14] = system: SK-MEL-28
[15] = system: SK-OV-3
[16] = system: SR
[17] = system: SW-620
[18] = system: TK-10
[19] = system: U-251
[20] = system: NCI-H522

SMILES | GI50 [1] | GI50 [2] | GI50 [3] | GI50 [4] | GI50 [5] | GI50 [6] | GI50 [7] | GI50 [8] | GI50 [9] | GI50 [10] | GI50 [11] | GI50 [12] | GI50 [13] | GI50 [14] | GI50 [15] | GI50 [16] | GI50 [17] | GI50 [18] | GI50 [19] | GI50 [20]
O=C(NNc1cn[nH]c(=O)n1)c1cccc2nc3ccccc3nc12 | > 100 µM (inactive) | 46.6 µM (inactive) | 25.1 µM (inactive) | > 100 µM | 45.2 µM (inactive) | 38.2 µM (inactive) | > 100 µM (inactive) | 26.5 µM (inactive) | > 100 µM (inactive) | 47.5 µM (inactive) | 68.2 µM (inactive) | > 100 µM (inactive) | 30.2 µM (inactive) | > 100 µM (inactive) | 33.4 µM (inactive) | 10.7 µM (inactive) | > 100 µM (inactive) | 24.3 µM (inactive) | 27.9 µM (inactive) | 
CSc1ncc2c(n1)C(C#N)C1Sc3ccccc3N1C2=O (stereo unspecified) | > 100 µM (inactive) | > 100 µM (inactive) |  | > 100 µM | 80 µM (inactive) | > 100 µM (inactive) | > 100 µM (inactive) | > 100 µM (inactive) | > 100 µM (inactive) | > 100 µM (inactive) | > 100 µM (inactive) |  | 36 µM (inactive) | > 100 µM (inactive) | > 100 µM (inactive) |  | > 100 µM (inactive) | 90.4 µM (inactive) | 34.5 µM (inactive) | 62.2 µM (inactive)
COC(=O)c1sc(=O)sc1SCc1cccc(CSc2sc(=O)sc2C(=O)OC)c1 | 51.4 µM (inactive) | 28.4 µM (inactive) | 53.7 µM (inactive) | > 100 µM | 24.2 µM (inactive) | 30.7 µM (inactive) | 36.4 µM (inactive) | 24.9 µM (inactive) | 68.9 µM (inactive) | 18.7 µM (inactive) | 15.9 µM (inactive) | 29.2 µM (inactive) | 26.2 µM (inactive) | 55.8 µM (inactive) | 22.7 µM (inactive) |  | > 100 µM (inactive) | 23.2 µM (inactive) | 17.4 µM (inactive) | 29 µM (inactive)
O=C(O)c1cc(NC2=C(Cl)C(=O)c3c(O)ccc(O)c3C2=O)ccc1O | > 10 µM (inactive) | > 10 µM (inactive) | > 10 µM (inactive) | > 10 µM | > 10 µM (inactive) | > 10 µM (inactive) | > 10 µM (inactive) | > 10 µM (inactive) | > 10 µM (inactive) | > 10 µM (inactive) | > 10 µM (inactive) | > 10 µM (inactive) | > 10 µM (inactive) | > 10 µM (inactive) | > 10 µM (inactive) |  | > 10 µM (inactive) | > 10 µM (inactive) | > 10 µM (inactive) | 
O=C(c1ccco1)N(C(=S)OCc1ccccn1)c1ccccc1 |  | > 100 µM (inactive) |  | > 100 µM |  | 50.1 µM (inactive) | > 100 µM (inactive) | > 100 µM (inactive) | > 100 µM (inactive) | 17.2 µM (inactive) |  | 59.8 µM (inactive) |  | > 100 µM (inactive) | > 100 µM (inactive) | 1.25 µM (inactive) | > 100 µM (inactive) | > 100 µM (inactive) | > 100 µM (inactive) | 
ClC1(Cl)C(c2ccccc2)C1c1ccccc1 (stereo unspecified) | 23 µM (inactive) | 30 µM (inactive) | 11.1 µM (inactive) | 21.6 µM |  |  | 27.7 µM (inactive) | 54.2 µM (inactive) | 5.32 µM (inactive) |  | 44.6 µM (inactive) | 62.2 µM (inactive) | 17.8 µM (inactive) | 41.7 µM (inactive) | 18.8 µM (inactive) | 7.64 µM (inactive) | 22.2 µM (inactive) | 54 µM (inactive) | 41.3 µM (inactive) | 
Cc1cc(S(=O)(=O)Nc2nc(N)nc(N3N=CCC3C)n2)c(S)cc1Cl (stereo unspecified) | > 10 µM (inactive) | > 10 µM (inactive) | > 10 µM (inactive) | > 10 µM | > 10 µM (inactive) | > 10 µM (inactive) | > 10 µM (inactive) |  | > 10 µM (inactive) | > 10 µM (inactive) | > 10 µM (inactive) | > 10 µM (inactive) | > 10 µM (inactive) | > 10 µM (inactive) | > 10 µM (inactive) | > 10 µM (inactive) | > 10 µM (inactive) | > 10 µM (inactive) | > 10 µM (inactive) | > 10 µM (inactive)
CC1=CC(c2ccccc2)n2c(nc3cc4ccccc4cc32)N1 (stereo unspecified) | > 100 µM (inactive) | > 100 µM (inactive) | > 100 µM (inactive) | > 100 µM | > 100 µM (inactive) | > 100 µM (inactive) | > 100 µM (inactive) | > 100 µM (inactive) | > 100 µM (inactive) | > 100 µM (inactive) | > 100 µM (inactive) | > 100 µM (inactive) | > 100 µM (inactive) | > 100 µM (inactive) | > 100 µM (inactive) | 90.4 µM (inactive) | > 100 µM (inactive) | > 100 µM (inactive) | > 100 µM (inactive) | 
COc1ccccc1NC(=O)C(=O)Cc1cnc2ccccc2n1 | > 100 µM (inactive) | > 100 µM (inactive) | > 100 µM (inactive) | > 100 µM | > 100 µM (inactive) |  | > 100 µM (inactive) | > 100 µM (inactive) | > 100 µM (inactive) |  | > 100 µM (inactive) | > 100 µM (inactive) | > 100 µM (inactive) | > 100 µM (inactive) | > 100 µM (inactive) | > 100 µM (inactive) | > 100 µM (inactive) |  | > 100 µM (inactive) | 
OCC(O)COCn1nncc1Cn1ncc2c(SCc3ccccc3)ncnc21 (stereo unspecified) | > 100 µM (inactive) | > 100 µM (inactive) | > 100 µM (inactive) | > 100 µM |  | > 100 µM (inactive) | > 100 µM (inactive) | > 100 µM (inactive) | > 100 µM (inactive) |  | > 100 µM (inactive) | > 100 µM (inactive) | > 100 µM (inactive) | > 100 µM (inactive) | > 100 µM (inactive) |  | > 100 µM (inactive) | > 100 µM (inactive) | > 100 µM (inactive) | 8.89 µM (inactive)
CCCCCCCCCCCCCCCCCCNC(=S)N/C=C1\C(=O)Nc2ccccc2C1=O | 21.1 µM (inactive) | 16.9 µM (inactive) | 16.3 µM (inactive) | 15.6 µM | 15.8 µM (inactive) | 5.83 µM (inactive) | 18.3 µM (inactive) | 14.9 µM (inactive) | 17.4 µM (inactive) |  | 20.6 µM (inactive) |  | 21.4 µM (inactive) | 16.5 µM (inactive) | 19.2 µM (inactive) |  | 19.5 µM (inactive) | 23.3 µM (inactive) | 19.2 µM (inactive) | 
N=C(N)C1CN(CCc2c[nH]c3ccccc23)C(=O)NC1=O (stereo unspecified) | > 100 µM (inactive) |  | > 100 µM (inactive) | > 100 µM | > 100 µM (inactive) | > 100 µM (inactive) | > 100 µM (inactive) | > 100 µM (inactive) | > 100 µM (inactive) | > 100 µM (inactive) | > 100 µM (inactive) | > 100 µM (inactive) | > 100 µM (inactive) | > 100 µM (inactive) | > 100 µM (inactive) | > 100 µM (inactive) | > 100 µM (inactive) | > 100 µM (inactive) | > 100 µM (inactive) | 
CCCCCCCCCCCCCCCCC(C(=O)O)C(O)(CC(=O)O)C(=O)O (stereo unspecified) |  | 21.4 µM (inactive) |  | 21.5 µM |  | 22.1 µM (inactive) | 19.7 µM (inactive) | 27.5 µM (inactive) | 47 µM (inactive) | 58.6 µM (inactive) |  | 19.5 µM (inactive) | 17.7 µM (inactive) | 23.9 µM (inactive) | 17.7 µM (inactive) | 24.7 µM (inactive) | 20 µM (inactive) | 34.8 µM (inactive) | 16.7 µM (inactive) | 
CN1c2ccc(Cl)cc2C(=O)NC1c1ccc([N+](=O)[O-])s1 (stereo unspecified) | 23.5 µM (inactive) | 15.1 µM (inactive) | 16.1 µM (inactive) | 12.7 µM | 14.5 µM (inactive) | 15.4 µM (inactive) | 15.6 µM (inactive) | 16.2 µM (inactive) | 16.2 µM (inactive) |  | 20.4 µM (inactive) | 16 µM (inactive) | 21.6 µM (inactive) | 18.7 µM (inactive) | 20.2 µM (inactive) | 14.6 µM (inactive) | 32.7 µM (inactive) | 20.2 µM (inactive) | 16.4 µM (inactive) | 
COP1(=O)NCc2ncccc2O1 (stereo unspecified) | > 100 µM (inactive) | > 100 µM (inactive) | > 100 µM (inactive) | > 100 µM | > 100 µM (inactive) | > 100 µM (inactive) | > 100 µM (inactive) | > 100 µM (inactive) | > 100 µM (inactive) |  | > 100 µM (inactive) | > 100 µM (inactive) | > 100 µM (inactive) | > 100 µM (inactive) |  | > 100 µM (inactive) | > 100 µM (inactive) |  | > 100 µM (inactive) | 
COc1cc(C(=O)N(C)N(C)C)cc(OC)c1OC | > 10 µM (inactive) | > 10 µM (inactive) | > 10 µM (inactive) | > 10 µM | > 10 µM (inactive) | > 10 µM (inactive) | > 10 µM (inactive) | > 10 µM (inactive) | > 10 µM (inactive) | > 10 µM (inactive) | > 10 µM (inactive) | > 10 µM (inactive) | > 10 µM (inactive) | > 10 µM (inactive) | > 10 µM (inactive) |  | > 10 µM (inactive) | > 10 µM (inactive) | > 10 µM (inactive) | > 10 µM (inactive)
